As usually defined, the EC50 is the concentration at which the effect is half-maximal.

Entries after “also recorded” stand apart in the source; their conditions may differ. Like-named read-outs stand apart in the source and are kept apart here.

We go through 18 compounds from US10774052B2, “Heteroaryl compounds and uses thereof” (Celgene CAR LLC, priority 2013, dated 2020).

Holding throughout (format): cell-based
Experiment [1] concerns pFGFR4 in MDA-MB-453 cells. Description: Washout experiment (duration of action on pFGFR4). As to conditions: 1000-2000 nM for 1 hr, washed, up to 24 hr. The method, then: The cells were allowed to settle down for 4 hrs and were then maintained in low-serum (0.1% FBS) media overnight.
The following morning, the media was removed and the cells were treated with 1000-2000 nM of test compound in low-serum media for 1 hr. The cells were washed free of test compound (3×) with PBS (Invitrogen). One set of cells was immediately lysed as indicated above as the 0 hr time point. The remaining cells were incubated with the appropriate complete growth media (10-20% FBS) for 1, 2, 4, 8, 16 (in certain circumstances) and 24 hr. DMSO (0.5%) controls were collected at all time points.

The subject of a further experiment is pFGFR4 in Huh7 cells. The experiment is described as follows: FGFR4 signaling, pFGFR4 (Huh); MSD (Method B). As to conditions: Homo sapiens.
The subject of experiment [2] is pFGFR4 in MDA-MB-453 cells. Description: FGFR4 signaling, pFGFR4 (MDA); Western blot (Method A), MSD (Method B), ELISA (Method C). As to conditions: Homo sapiens. Background: In western blotting, separated proteins are transferred to a membrane and probed.
[3] abbreviates: MDA-MB-453 cells, Method B (MSD) for signaling EC50 determination.
[4] abbreviates: Huh-7, Huh7 cells, read-out: Signaling EC50 (nM) pFGFR4 (Huh).
Setting [5] is: MDA-MB-453, MDA-MB-453 cells, Method B (MSD) for signaling EC50 determination.

`C=CC(=O)NC1CCCCC1Nc1ncc2c(n1)N(Cc1cscn1)C(=O)N(c1c(Cl)c(OC)cc(OC)c1Cl)C2` (racemic) [Compound I-69]: in experiment [1], the “duration of action against pFGFR4 signalling post washout” value (shortened to “duration of action”) is “prolonged inhibition of autophosphorylation of FGFR4; also recorded: prolonged duration of action”. The 50% effective concentration (EC50) in the experiment with pFGFR4 in Huh7 cells (Huh-7, read-out: Signaling EC50 (nM) pFGFR4 (Huh)) is 101 to 500 nM; in experiment [2] (setting [3]), under 100 nM.
As for `C=CC(=O)Nc1ccccc1Nc1ncc2c(n1)N(Cc1cccc(NC(=O)CC)c1)C(=O)N(c1c(Cl)c(OC)cc(OC)c1Cl)C2` [Compound I-1], the “duration of action” value in experiment [1] was “prolonged duration of action; also recorded: has PDA”. The concentration for a half-maximal effect (EC50) (with pFGFR4 in Huh7 cells (setting [4]); in experiment [2] (setting [3])) was under 100 nM in each case.
Consider `C=CC(=O)Nc1ccccc1Nc1ncc2c(n1)NC(=O)N(c1cc(OC)cc(OC)c1)C2` [Compound I-125], for which the values for the EC50 (in the experiment with pFGFR4 in Huh7 cells (setting [4]); in experiment [2] (setting [5])) were over 1000 nM and 501 to 999 nM, respectively.
In the case of `C=CC(=O)NC1COCC1Nc1ncc2c(n1)N(C)C(=O)N(c1c(Cl)c(OC)cc(OC)c1Cl)C2` (centres unmarked) [Compound I-126], the EC50 (in the experiment on pFGFR4 in Huh7 cells (setting [4]); in experiment [2] (setting [5])) was under 100 nM each time.
Regarding `C=CC(=O)Nc1ccccc1Nc1ncc2c(n1)N(C)C(=O)N(c1c(F)c(OC)cc(OC)c1F)C2` [Compound I-131], the concentration giving a half-maximal response (EC50) (in the experiment with pFGFR4 in Huh7 cells (setting [4]); in experiment [2] (setting [3])) was under 100 nM in each case.
`C=CC(=O)NC1CCCCC1Nc1ncc2c(n1)N(Cc1ccn(C)c(=O)c1)C(=O)N(c1c(Cl)c(OC)cc(OC)c1Cl)C2` (centres unmarked) [Compound I-132]: the EC50 (with pFGFR4 in Huh7 cells (setting [4]); in experiment [2] (setting [3])) was 101 to 500 nM in each case.
On to `C=CC(=O)NC1CCCCC1Nc1ncc2c(n1)N(Cc1ccnc(N)c1)C(=O)N(c1c(Cl)c(OC)cc(OC)c1Cl)C2` (centres unmarked) [Compound I-133], for which the half-maximal effective concentration (EC50) (in the experiment on pFGFR4 in Huh7 cells (setting [4]); in experiment [2] (setting [3])) was under 100 nM throughout.
Turning to `C=CC(=O)NC1CCCCC1Nc1ncc2c(n1)N(Cc1csc(C)n1)C(=O)N(c1c(Cl)c(OC)cc(OC)c1Cl)C2` (centres unmarked) [Compound I-137], the 50% effective concentration (EC50) (in the experiment with pFGFR4 in Huh7 cells (setting [4]); in experiment [2] (setting [3])) was 101 to 500 nM in each case.
Turning to `C=CC(=O)N[C@H]1COCC[C@H]1Nc1ncc2c(n1)N(C)C(=O)N(c1c(Cl)c(OC)cc(OC)c1Cl)C2` [Compound I-140], the EC50 (in the experiment with pFGFR4 in Huh7 cells (setting [4]); in experiment [2] (setting [3])) was 101 to 500 nM throughout.
Regarding `C=CC(=O)N[C@H]1CCCC[C@H]1Nc1ncc2c(n1)N(C)C(=O)N(c1c(F)c(OC)cc(OC)c1F)C2` [Compound I-143], the EC50 (in the experiment with pFGFR4 in Huh7 cells (setting [4]); in experiment [2] (setting [3])) was 101 to 500 nM each time.
As for `C=CC(=O)Nc1cc(-c2nnn(C)n2)ccc1Nc1ncc2c(n1)N(C)C(=O)N(c1cc(OC)cc(OC)c1)C2` [Compound I-146], the concentration for a half-maximal effect (EC50) (in the experiment on pFGFR4 in Huh7 cells (setting [4]); in experiment [2] (setting [3])) was 101 to 500 nM each time.
Consider `C=CC(=O)Nc1cc(C(=O)NC2CCN(C)CC2)ccc1Nc1ncc2c(n1)N(C)C(=O)N(c1cc(OC)cc(OC)c1)C2` [Compound I-151], for which the values for the EC50 (in the experiment with pFGFR4 in Huh7 cells (setting [4]); in experiment [2] (setting [3])) were over 1000 nM and 501 to 999 nM, respectively.
Regarding `C=CC(=O)Nc1cc(-c2nnnn2C)ccc1Nc1ncc2c(n1)N(C)C(=O)N(c1c(Cl)c(OC)cc(OC)c1Cl)C2` [Compound I-153], the concentration for a half-maximal effect (EC50) (in the experiment with pFGFR4 in Huh7 cells (setting [4]); in experiment [2] (setting [3])) was under 100 nM each time.
Regarding `C=CC(=O)Nc1ccccc1Nc1ncc2cc(-c3cc(OC)cc(OC)c3)c(N)nc2n1` [Compound I-155], the EC50 in the experiment on pFGFR4 in Huh7 cells (setting [4]) was over 1000 nM; in experiment [2] (setting [3]), 101 to 500 nM.
On to `C=CC(=O)N[C@@H]1COC[C@@H]1Nc1ncc2c(n1)N(C)C(=O)N(c1c(Cl)c(OC)cc(OC)c1Cl)C2` [Compound I-185], for which the EC50 in the experiment on pFGFR4 in Huh7 cells (setting [4]) is over 1000 nM; in experiment [2] (setting [5]), 101 to 500 nM.
On to `C=CC(=O)N[C@H]1COC[C@H]1Nc1ncc2c(n1)N(C)C(=O)N(c1c(Cl)c(OC)cc(OC)c1Cl)C2` [Compound I-186], for which the EC50 (in the experiment with pFGFR4 in Huh7 cells (setting [4]); in experiment [2] (setting [5])) was under 100 nM throughout.
Take `CCC(=O)Nc1cccc(CN2C(=O)N(c3c(Cl)c(OC)cc(OC)c3Cl)Cc3cnc(Nc4ccccc4NC(=O)CC)nc32)c1` [Compound I-234]: in experiment [1], the “duration of action” value is “does not show prolonged duration of action; also recorded: does not have PDA”. In addition, in experiment [2] (MDA-MB-453 cells, Method A (Western blot) for signaling EC50 determination), the EC50 fell in the range of 101 to 500 nM.
Regarding `COc1cc(OC)c(Cl)c(N2Cc3cnc(Nc4ccccc4)nc3N(C)C2=O)c1Cl` [Compound I-238], the EC50 (in the experiment with pFGFR4 in Huh7 cells (setting [4]); in experiment [2] (setting [3])) was under 100 nM in each case.
